One data set relates to C. parvum. Kind of data set: C. parvum growth inhibition in HCT-8 cells, in vitro dose response (immunofluorescence). The format is cell-based. Conditions: Cryptosporidium parvum; C. parvum in HCT-8 cells; plate control of the screen; read-out: 90% inhibitory concentration (IC90). How it is done: Materials and Methods: Cell culture and Cryptosporidium infections: The high throughput screen for C. parvum growth inhibitors was carried out using human ileocecal adenocarcinoma (HCT-8) cells (ATCC) maintained in RPMI 1640 medium with HEPES, sodium pyruvate (1 mM) and L-glutamate with 10% horse serum (ATCC) supplemented with 120 U/mL penicillin and 120 μg/mL streptomycin. HCT-8 cells were grown to confluence in 384-well, tissue culture-treated, black-walled, clear-bottom microwell plates (BD Falcon). […]
Infected monolayers were washed three times with PBS containing 111 mM D-galactose using an EL406 automated plate washer (Biotek), fixed with 4% paraformaldehyde, permeabilized with 0.25% Triton X-100 in PBS, and then blocked with 4% bovine serum albumin (BSA). Vegetative forms of C. parvum were detected by the addition of biotinylated Vicia villosa lectin (VVL; Vector Laboratories) and streptavidin-conjugated Alexa Fluor 568 (Invitrogen) diluted in PBS with 1% BSA and 0.1% Tween 20. […]
ImageJ outputs were imported into Microsoft Excel for data organization and analysis. Percent inhibition was calculated (equation 1) for each well in order to normalize the data and to facilitate the combination of data from individual biological replicates. […]

The subject of the next data set is C. parvum (Iowa strain). Kind of data set: NOD SCID gamma immunocompromised mouse model of cryptosporidiosis (fecal oocyst shedding by qPCR). Type of data set: in vivo, Cryptosporidium parvum. An excerpt: A NOD SCID gamma mouse model was used for in vivo testing of confirmed screening hits. NOD SCID gamma mice (Jackson Laboratories) develop Cryptosporidium parvum infection following oral gavage that is characterized by persistent infection of the small intestinal and cecal epithelium. The mice remain asymptomatic and gain weight normally. Infection is established by oral gavage of 1×10^4 C. parvum (Iowa strain) oocysts on day −6. Fecal parasite shedding is quantified by quantitative PCR of genomic DNA, using a standard curve generated by spiking oocysts into fecal samples from uninfected mice. Fecal oocyst shedding reliably becomes detectable at day 1 (1 week after infection). Experimental compounds are administered by oral gavage of 30 mg/kg in DMSO:1% HPMC (5:95) twice daily for 4 days. Parasite shedding is compared to that for infected mice treated with drug carrier alone (i.e. DMSO:1% HPMC (5:95)).
Results for treatment of C. parvum infected NOD SCID gamma mice with DMSO or selected MMV Malaria Box screening hits with confirmed in vitro activity given by oral gavage of 30 mg/kg twice daily on days 1-4 can be seen in FIG. 2. Cryptosporidium parvum infection was established on day −6. Parasite shedding is detectable in all animals on day 1. […] Other compounds and DMSO had no effect. Data shown are the mean and SE for parasites detected/mg of feces (n=4 animals per treatment group).
A repeat of the experiment presented in FIG. 2 showing efficacy of MMV665917 in the NOD SCID gamma mouse model is presented in FIG. 5. […] For this experiment, NOD SCID gamma mice were infected on day −6 by oral gavage of C. parvum oocysts, shedding was detected at day 0 prior to compound dosing, compounds or vehicle were dosed on days 0-6 as indicated, and mice were maintained for one week following cessation of treatment. Data shown are the mean and SE for the number of oocysts/mg stool detected by real time PCR of the feces on the indicated day (four mice per experimental group).

For the next data set, the system named is C. parvum Iowa strain. Kind of data set: Static or cidal assay: C. parvum persistence in HCT-8 cells at multiples of the EC90. Type of data set: cell-based, Cryptosporidium parvum. Conditions: compound added 24 hours after infection of HCT-8 cells (FIG. 7). How it is done:
HCT-8 cell monolayers are infected and parasites are allowed to replicate for 24 hours before addition of experimental drug compounds. Parasite numbers are then measured at different time points following compound addition by epifluorescence microscopy, using the same method as used in FIG. 1.
To assess if MMV665917 is cidal or static for C. parvum and determine the concentration of compound required to maximize the rate of parasite elimination, C. parvum persistence in HCT-8 colonic carcinoma cells was assayed in the presence of increasing multiples of the in vitro EC90. Briefly, the assay infects HCT-8 intestinal epithelial cells with the C. parvum Iowa strain as in Example 1. Parasites are then allowed to develop for 24 hours prior to the addition of the indicated concentration of experimental compounds (time 0 in the graphs above). At the indicated times following compound addition, samples are then fixed, the host cells and parasites are fluorescently stained, and parasites are enumerated by automated epifluorescence microscopy and image process as described in Example 1.

In a further data set the test system is Cryptosporidium. Particulars: cited from earlier work.
Data set [1] is described as follows: Pharmacokinetics in male Sprague Dawley rats (IV and oral). The format is in vivo, rat. How it is done:
The pharmacokinetics of MMV665917 were studied in overnight-fasted male Sprague Dawley rats that had access to water ad libitum throughout the pre- and post-dose sampling period, and access to food was re-instated 4 h (hour) post-dose. MMV665917 was administered intravenously as a 10 min (minute) constant rate infusion via an indwelling jugular vein cannula (1 mL per rat, n=2 rats) and orally by gavage (10 mL/kg per rat, n=2 rats). Samples of arterial blood and total urine were collected up to 24 h post-dose. Arterial blood was collected directly into borosilicate vials (at 4° C.) containing heparin, Complete® (a protease inhibitor cocktail), potassium fluoride, and EDTA to minimise potential for ex vivo degradation of test compound in blood/plasma samples. Once collected, blood samples were centrifuged, supernatant plasma was removed and stored frozen (−20° C.) until analysis by LC-MS. IV Formulation. MMV665917 was dissolved in propylene glycol and ethanol before Milli-Q water was added producing a clear solution. The formulation was filtered through a 0.22 μm syringe filter prior to dosing, and the measured concentration of compound the filtered solution was 0.24 mg/mL. Oral Formulation. MMV665917 was wet milled in HPMC-SV in an agate mortar and sonicated for 10 minutes producing a uniform suspension. The bulk formulation was mixed by inverting the tubes prior to drawing each dosing volume and the average measured concentration of compound in aliquots (n=3) of formulation was 0.32 mg/mL (range 0.28-0.37 mg/mL).

The nature of data set [2]: In vitro plasma/blood stability and whole blood-to-plasma ratio. Type of data set: in vitro ADME, rat. Conditions: 37° C. How it is done: In Vitro Determination of Plasma/Blood Stability and Whole Blood-to-Plasma Ratio. MMV665917 was spiked into fresh heparinized whole blood (collected from male Sprague Dawley rats) or plasma of a corresponding volume (which acted as a matrix control) to an initial nominal concentration of 500 ng/mL. As a whole blood assay for the compound was not available, the concentration of MMV665917 in the spiked plasma (i.e. matrix control) was used as a surrogate measurement of the spiked whole blood concentration. Whole blood samples were incubated at 37° C. for up to 240 min after which plasma and erythrocytes were separated by centrifugation prior to determination of plasma concentrations by LC-MS. Whole blood-to-plasma partitioning ratios (B/P) were obtained by dividing the measured concentration in the plasma control sample by the concentration measured in plasma following centrifugation of whole blood.

The nature of data set [3]: Mouse plasma concentration, single oral dose and simulated BID dosing. The format is in vivo. As for the experimental part: Compounds were dosed as indicated either orally by oral gavage or intravenously, and serum samples were collected at the indicated time points. The MMV665917 plasma concentration was measured by LC-MS/MS.
(§1) Mouse serum concentrations measured from a single 55 mg/kg oral dose of MMV665917 (see above figure) were used to simulate the mouse serum concentrations following BID dosing of either 30 mg/kg or 60 mg/kg. The measured calf plasma concentration following a single 22 mg/kg oral dose is also shown. Note that a minimum concentration of EC90 was required for parasite elimination in vitro, and the rate of parasite elimination in vitro was maximized at 3× the EC90 concentration.
as §1, with “The actual and simulated mouse and calf plasma concentrations for MMV665917, correlated to the EC90 and 3×EC90 concentrations are shown in FIG. 9. Mouse” for “Mouse”, “(FIG. 9)” for “(see above figure)”

The mark [4] stands for this setting: 30 mg/kg twice daily oral gavage, days 1-4 (FIG. 2).

Entries after “also recorded” stand apart in the source; their conditions may differ. Read-outs that look alike come from different tables or passages of the source.

Consider `CC(=O)Oc1ccccc1C(=O)Nc1ncc([N+](=O)[O-])s1` [nitazoxanide], for which, in the data set on C. parvum, the IC90 is 6.6 µM. Further, the “activity in the NOD SCID gamma mouse model” value with C. parvum (Iowa strain) (dose not stated) is “lacks activity”. In the data set with C. parvum Iowa strain, the “static or cidal for C. parvum” value is on record as “static”. Further, the efficacy in cryptosporidiosis entry in the data set with Cryptosporidium (AIDS patients / immunocompromised people) is on record as “lacks activity”; with Cryptosporidium (AIDS patients / immunocompromised people, listed as Nitazoxanide), “no more effective than placebo”; in the data set with Cryptosporidium (children), “partial efficacy”.

What is called half-life is the time in which the quantity being followed falls by half. Usually bioavailability stands for the share of a dose that reaches the circulation, judged against a reference dose that is usually intravenous. As for `O=C(Nc1ccc(Cl)cc1)N1CCN(c2ccc3nncn3n2)CC1` [MMV665917], the “efficacy across the two experiments” value in the data set with C. parvum (Iowa strain) (30 mg/kg BID (effective in FIG. 2, ineffective in FIG. 5)) was “variable efficacy; also recorded: variably efficacious”. Also, in the data set on C. parvum (Iowa strain) (setting [4]), the “parasite shedding (oocysts/mg feces)” value is reported as “significantly reduced parasite shedding” and the “persistence of reduced parasite shedding following cessation of treatment” value is listed as over 3 days. Further, the “efficacy on C. parvum shedding, repeat experiment” value in the data set with C. parvum (Iowa strain) (30 mg/kg twice daily oral gavage, seven days (FIG. 5)) is “inactive; also recorded: not effective”. For the same compound, the “efficacy on C. parvum shedding, repeat experiment” value in the data set on C. parvum (Iowa strain) (60 mg/kg twice daily oral gavage, seven days (FIG. 5)) was “eliminated detection of C. parvum shedding in the feces; also recorded: cured; also recorded: curative”. Besides, in the data set on C. parvum (Iowa strain) (60 mg/kg twice daily, seven days (FIG. 5)), the “relapse over the week following cessation of treatment” value is recorded as “no relapse was observed”. For the same compound, the “static or cidal for C. parvum” value in the data set on C. parvum Iowa strain is “cidal”. Besides, the half-life in data set [1] (male, Sprague Dawley, rat, plasma, 0.24 mg per rat, rats, IV administration, read-out: apparent terminal half-life) lay within 3 to 4 h. In addition, the bioavailability in data set [1] (male, Sprague Dawley, rat, plasma, po, 3.2 mg/kg, rats, oral administration, read-out: apparent oral bioavailability) lay within 24 to 43%. Moreover, in data set [1] (rat, in vivo, iv), the haemolysis in plasma result is “Evidence of haemolysis was observed”. For the same compound, in data set [1] (rats, IV administration), the “apparent volume of distribution” value is reported as “moderate”, the in vivo clearance result was “low” and the “time plasma concentrations remained above the analytical LLQ” value is 16 h. Moreover, the “fraction of the dose recovered in urine as intact compound” value in data set [1] (rats, IV, 24 h sampling period) is listed as “approximately 25%”. In addition, the “adverse reactions or compound related side effects” value in data set [1] (rats, following IV or oral administration) is “No adverse reactions or compound related side effects were observed”. Also, in data set [1] (rats, oral administration), the absorption result is listed as “slowly absorbed”, the apparent terminal half-life result is given as “consistent with that observed after IV dosing” and the “time of maximum plasma concentrations” value was determined as 5 h post-dose. Further, in data set [2] (up to 240 min, 500 ng/mL), the “stability in rat plasma and whole blood” value was “stable”. Moreover, the blood plasma ratio at 500 ng/mL in data set [2] (male, Sprague Dawley, fresh heparinized whole blood, rat blood, read-out: apparent in vitro whole blood to plasma partitioning ratio (B/P)) was 1.1. Besides, in data set [3] (mouse (FIG. 4)), the intestinal absorption entry is on record as “slow”, the serum half-life result is reported as “prolonged” and the systemic exposure entry is “moderate”. Further, in data set [3] (mouse, 30 mg/kg BID, simulated from single 55 mg/kg oral dose), the “plasma/serum concentration relative to the EC90 / 3×EC90” value is recorded as “exceeds the EC90 for just over ½ the dosing interval; also recorded: not attained”. Further, in data set [3] (mouse, single dose (FIG. 4)), the “time to peak serum concentration” value is 6 h.

Consider `NC[C@@H]1O[C@H](O[C@H]2[C@@H](O)[C@H](O[C@@H]3[C@@H](O)[C@H](N)C[C@H](N)[C@H]3O[C@H]3O[C@H](CO)[C@@H](O)[C@H](O)[C@H]3N)O[C@@H]2CO)[C@H](N)[C@@H](O)[C@@H]1O` [paromomycin, reference compound], for which, in the data set on C. parvum (Iowa strain) (1000 mg/kg twice daily, positive control (FIG. 5)), the “relapse after treatment cessation” value is reported as “relapsed quickly after treatment cessation”.

These data come from patent publication US11229649B2, “Methods for treating cryptosporidiosis using triazolopyridazines” (University of Vermont and State Agricultural College, priority 2015, dated 2022).
